Like-named read-outs stand apart in the source and are kept apart here.
Assays:
[1] = molecular target: T1, soluble guanylate cyclase (sGC) (Homo sapiens (Human), UniProt Q02108+Q02153); assay: sGC-HEK-cGMP assay run in the absence of SNP (HEK WC assay); format: cell-based; details: compound at 30 μM, absence of SNP
Protocol: Human embryonic kidney cells (HEK293), endogenously expressing soluble guanylate cyclase (sGC), were used to evaluate the activity of test compounds. Compounds stimulating the sGC receptor should cause an increase in the intracellular concentration of cGMP. HEK 293 cells were seeded in Dulbecco's Modification of Eagle's Medium supplemented with fetal bovine serum (10% final) and L-glutamine (2 mM final) in a 200 μL volume at a density of 1×10^5 cells/well in a poly-D-lysine coated 96 well flat bottom plate and grown overnight at 37° C. Medium was aspirated and cells were washed with 1× Hank's Buffered Saline Salt Solution (200 μL). Cells were then incubated for 15 minutes at 37° C. with 0.5 mM 3-isobutyl-1-methylxanthine (200 μL). Test article was then added to the assay mixture (2 μL) and incubated at 37° C. for 10 minutes. After the 10 minute incubation, the assay mixture was aspirated and 0.1M HCl (200 μL) was added to the cells. The plate was incubated at 4° C. for 30 minutes in the 0.1M HCl to stop the reaction and lysed the cells. The plates were then centrifuged at 1,200 g for 5 minutes at room temperature. Supernatants were collected and transferred to a new flat bottom 96 well plate for analysis. Vehicle controls were carried out using DMSO (1%). A known sGC stimulator, BAY 41-2272, was used as the positive control. Samples were diluted with an equal volume of 1 M Ammonium Acetate (pH 7) to neutralize samples for better chromatography. A 2× cGMP standard curve was prepared in 0.1 M HCl and then diluted with an equal volume of 1 M Ammonium Acetate, with the following final concentrations in nM: 1024, 512, 256, 128, 64, 32, 16, 8, 4, 2, 1. cGMP concentrations were determined from each sample using the LC/MS conditions (Table 2 below) and calculated standard curve. EC50 values were calculated from concentration-response curves generated with GraphPad Prism Software.

[2] = molecular target: T1, soluble guanylate cyclase (sGC); assay: sGC-HEK-cGMP assay run with SNP incubation (HEK WC assay); format: cell-based; details: for HEK WC Assay (fold increase at 30 μM in the presence of 10 μM SNP): compound at 30 μM; for EC50: in the presence of 10 uM SNP
In short: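 EC50 values derive from concentration-response curves of intracellular cGMP in HEK293 cells, which express sGC endogenously. Compound and sodium nitroprusside were co-incubated 10 min at 37 °C after a 15-min 0.5 mM IBMX step, with 0.1 M HCl lysis and 1% DMSO vehicle.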

[3] = read-out: HEK WC Assay (% Emax at 1 μM with 10 uM SNP)
[4] = read-out: HEK WC Assay (% Emax at 10 μM with 10 uM SNP)
[5] = read-out: HEK WC Assay (% Emax at 30 μM with 10 uM SNP)

T1 sequence (Q02153 whole entry): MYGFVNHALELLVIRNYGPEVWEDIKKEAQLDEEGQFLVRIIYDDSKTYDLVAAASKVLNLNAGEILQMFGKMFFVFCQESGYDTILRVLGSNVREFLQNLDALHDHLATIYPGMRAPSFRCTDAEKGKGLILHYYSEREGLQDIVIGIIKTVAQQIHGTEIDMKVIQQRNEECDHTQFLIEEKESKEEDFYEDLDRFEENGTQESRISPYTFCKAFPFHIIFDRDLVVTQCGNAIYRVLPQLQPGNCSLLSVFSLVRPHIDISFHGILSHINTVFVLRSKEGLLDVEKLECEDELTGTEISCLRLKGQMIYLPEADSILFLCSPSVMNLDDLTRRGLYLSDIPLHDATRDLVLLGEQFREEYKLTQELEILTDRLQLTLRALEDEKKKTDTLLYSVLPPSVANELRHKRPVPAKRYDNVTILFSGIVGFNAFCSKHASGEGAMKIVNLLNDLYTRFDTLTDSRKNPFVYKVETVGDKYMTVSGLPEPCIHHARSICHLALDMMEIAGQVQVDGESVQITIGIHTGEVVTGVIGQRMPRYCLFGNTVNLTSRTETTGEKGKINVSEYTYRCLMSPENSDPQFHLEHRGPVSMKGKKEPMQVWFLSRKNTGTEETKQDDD
T1 sequence (Q02108 whole entry): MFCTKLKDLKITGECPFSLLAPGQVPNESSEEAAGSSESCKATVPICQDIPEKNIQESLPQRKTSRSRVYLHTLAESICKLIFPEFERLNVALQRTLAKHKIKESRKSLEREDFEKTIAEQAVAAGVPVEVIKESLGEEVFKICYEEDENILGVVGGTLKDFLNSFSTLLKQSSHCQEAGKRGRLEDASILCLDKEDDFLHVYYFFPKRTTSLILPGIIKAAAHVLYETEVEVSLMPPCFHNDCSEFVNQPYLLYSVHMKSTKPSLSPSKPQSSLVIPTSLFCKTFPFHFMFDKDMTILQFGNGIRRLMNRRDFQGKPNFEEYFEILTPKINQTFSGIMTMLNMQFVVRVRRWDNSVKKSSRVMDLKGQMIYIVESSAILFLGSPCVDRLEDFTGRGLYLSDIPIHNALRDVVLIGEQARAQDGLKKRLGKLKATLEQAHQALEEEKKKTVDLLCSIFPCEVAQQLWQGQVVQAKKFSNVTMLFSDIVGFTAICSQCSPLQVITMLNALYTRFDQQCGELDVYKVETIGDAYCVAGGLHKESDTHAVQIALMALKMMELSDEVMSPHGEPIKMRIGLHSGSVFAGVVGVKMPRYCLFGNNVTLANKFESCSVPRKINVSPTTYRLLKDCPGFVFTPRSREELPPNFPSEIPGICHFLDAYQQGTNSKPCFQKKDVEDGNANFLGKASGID

Row | HEK WC Assay (fold increase at 30 μM in the absence of SNP) [1] | HEK WC Assay (fold increase at 30 μM in the presence of 10 μM SNP) [2] | EC50 [2] [µM] | Emax [2, 3] [%] | Emax [2, 4] [%] | Emax [2, 5] [%] | Compound
1 | D (D = 5 to <10 fold increase) | E (E = 10 to <20 fold increase) | < 20 | 40 to 60 | 40 to 60 | 60 to 80 | Nc1nc(-c2cc(-c3ccon3)n(Cc3ccccc3F)n2)ncc1NC(=O)C1(C(F)(F)F)CCC1 [Compound I-243]
2 | F (F = 20 to <30 fold increase) | F (F = 20 to <30 fold increase) | < 20 | 40 to 60 | 60 to 80 | 60 to 80 | C/C=C(\C)C(=O)Nc1cnc(-c2cc(-c3ccon3)n(Cc3ccccc3F)n2)nc1N [Compound I-227]
3 | E (E = 10 to <20 fold increase) | F (F = 20 to <30 fold increase) | < 20 | 40 to 60 | 80 to 100 | 60 to 80 | CC(F)(F)C(=O)Nc1cnc(-c2cc(-c3ccon3)n(Cc3ccccc3F)n2)nc1N [Compound I-226]
4 | C (C = 2 to <5 fold increase) | E (E = 10 to <20 fold increase) | – | – | 40 to 60 | 40 to 60 | Oc1nc(-c2cc(-c3ccon3)n(Cc3ccccc3F)n2)ncc1-c1ccncc1 [Compound I-163]
5 | E (E = 10 to <20 fold increase) | E (E = 10 to <20 fold increase) | < 20 | 60 to 80 | 80 to 100 | > 120 | Cc1ccc(C(=O)Nc2cnc(-c3cc(-c4ccon4)n(Cc4ccccc4F)n3)nc2N)cc1 [Compound I-181]
6 | C (C = 2 to <5 fold increase) | E (E = 10 to <20 fold increase) | < 20 | 20 to 40 | 40 to 60 | 40 to 60 | Fc1cccc(Cn2nc(-c3ncccn3)cc2-c2ccon2)c1 [Compound I-202]
7 | B (B = 1 to <2 fold increase) | C (C = 2 to <5 fold increase) | 40 to 60 | – | 0 to 10 | 10 to 20 | Oc1coc(-c2cc(-c3ncccn3)nn2Cc2ccccc2F)n1 [Compound I-295]
8 | E (E = 10 to <20 fold increase) | E (E = 10 to <20 fold increase) | < 20 | 10 to 20 | 40 to 60 | 60 to 80 | Nc1nc(-c2cc(-c3ccon3)n(Cc3ccccc3F)n2)ncc1NC(=O)c1cccc(O)n1 [Compound I-193]
9 | B (B = 1 to <2 fold increase) | B (B = 1 to <2 fold increase) | – | – | 0 to 10 | 10 to 20 | Nc1cc(O)nc(-c2cc(-c3ccon3)n(Cc3ccccc3F)n2)n1 [Compound I-154]
10 | E (E = 10 to <20 fold increase) | E (E = 10 to <20 fold increase) | < 20 | 60 to 80 | 80 to 100 | 100 to 120 | Nc1nc(-c2cc(-c3ccon3)n(Cc3ccccc3F)n2)ncc1NC(=O)c1ccon1 [Compound I-175]
11 | E (E = 10 to <20 fold increase) | E (E = 10 to <20 fold increase) | < 20 | 60 to 80 | 80 to 100 | 80 to 100 | CC1(C(=O)Nc2cnc(-c3cc(-c4ccon4)n(Cc4ccccc4F)n3)nc2N)CCCCC1 [Compound I-231]
12 | D (D = 5 to <10 fold increase) | E (E = 10 to <20 fold increase) | < 20 | 40 to 60 | 60 to 80 | 60 to 80 | Nc1nc(-c2cc(-c3ccon3)n(Cc3ccccc3F)n2)ncc1NC(=O)/C=C/c1ccccc1 [Compound I-239]
13 | B (B = 1 to <2 fold increase) | C (C = 2 to <5 fold increase) | – | – | 0 to 10 | 0 to 10 | Fc1ccccc1Cn1nc(-c2ccccn2)cc1N1CCC1 [Compound I-287]
14 | C (C = 2 to <5 fold increase) | E (E = 10 to <20 fold increase) | – | – | 20 to 40 | 20 to 40 | CC(C)(C)OC(=O)Nc1cnc(-c2cc(-c3ccon3)n(Cc3ccccc3F)n2)nc1O [Compound I-164]
15 | E (E = 10 to <20 fold increase) | D (D = 5 to <10 fold increase) | < 20 | 60 to 80 | 100 to 120 | 80 to 100 | Cc1cccc(C(=O)Nc2cnc(-c3cc(-c4ccon4)n(Cc4ccccc4F)n3)nc2N)c1 [Compound I-183]
16 | C (C = 2 to <5 fold increase) | E (E = 10 to <20 fold increase) | 100 to 300 | 0 to 10 | 10 to 20 | 10 to 20 | Nc1nc(-c2cc(-c3ccon3)n(Cc3ccccc3F)n2)ncc1NCc1ccccc1 [Compound I-223]
17 | C (C = 2 to <5 fold increase) | E (E = 10 to <20 fold increase) | < 20 | 20 to 40 | 40 to 60 | 40 to 60 | O=S(=O)(c1cnc(-c2cc(-c3ccon3)n(Cc3ccccc3F)n2)nc1O)N1CCOCC1 [Compound I-224]
18 | D (D = 5 to <10 fold increase) | E (E = 10 to <20 fold increase) | 20 to 40 | 20 to 40 | 20 to 40 | 40 to 60 | Nc1nc(-c2cc(-c3ccon3)n(Cc3ccccc3F)n2)ncc1NC(=O)c1ccccc1OC(F)(F)F [Compound I-211]
19 | B (B = 1 to <2 fold increase) | C (C = 2 to <5 fold increase) | – | – | 0 to 10 | 0 to 10 | CC(=O)Nc1c(N)nc(-c2cc(-c3ccon3)n(Cc3ccccc3F)n2)nc1N [Compound I-141]
20 | B (B = 1 to <2 fold increase) | B (B = 1 to <2 fold increase) | – | – | – | – | Oc1cc(-c2cccnc2)nc(-c2cc(-c3ccon3)n(Cc3ccccc3F)n2)n1 [Compound I-300]
21 | B (B = 1 to <2 fold increase) | C (C = 2 to <5 fold increase) | 300 to 600 | 0 to 10 | 0 to 10 | 0 to 10 | Clc1ccccc1Cn1nc(-c2ncccn2)cc1-c1ccon1 [Compound I-200]
